According to paper PMC8521408 (Journal of Antimicrobial Chemotherapy, 2021):
Read-outs that look alike come from different tables or passages of the source.

Key:
[1] = for Cumulative AUC: mean ± SD, SD
[2] = for Covariate effect, CRGT on CL: exponent of (CRGT/83) on CL
[3] = Other clinical endpoints during ICU stay
[4] = New-onset AKI during vancomycin treatment
[5] = final model estimate, scaled to 70 kg TBW, critically ill ICU patients
[6] = median of bootstrap of final model (1000 samples)

For CN[C@H](CC(C)C)C(=O)N[C@H]1C(=O)N[C@@H](CC(N)=O)C(=O)N[C@H]2C(=O)N[C@H]3C(=O)N[C@H](C(=O)N[C@H](C(=O)O)c4cc(O)cc(O)c4-c4cc3ccc4O)[C@H](O)c3ccc(c(Cl)c3)Oc3cc2cc(c3O[C@@H]2O[C@H](CO)[C@@H](O)[C@H](O)[C@H]2O[C@H]2C[C@](C)(N)[C@H](O)[C@H](C)O2)Oc2ccc(cc2Cl)[C@H]1O [vancomycin], the “median AUC0–24” value ([1]; CD group, fixed first dose 1000 mg (N = 39 courses)) was 401 µg·h/mL, the “percentage of courses achieving AUC0–24 ≥400 mg·h/L” value ([1]; CD group, fixed first dose 1000 mg (N = 39 courses), assuming MIC = 1 mg/L) was 53.8% and the “median AUC0–24” value ([1]; LD group, 25 mg/kg loading dose (N = 50 courses)) was 602 µg·h/mL. The “Cumulative AUC” value ([1]; all episodes included for model building (N = 104)) was 1937 ± 1448 µg·h/mL, the “percentage of courses with AUC0–24 > 600 mg·h/L” value ([1]; courses with a loading dose, 26/50) was 52% and the “Cumulative AUC” value ([1]; episodes with 25 mg/kg loading dose, LD group (N = 50)) was 2027 ± 1543 µg·h/mL. The “Cumulative AUC” value ([1]; episodes without loading dose, CD group, first dose 1000 mg (N = 39)) was 1849 ± 1359 µg·h/mL, the “Covariate effect, CRGT on CL” value ([2]; bootstrap median) was 0.63 and the “Covariate effect, CRGT on CL” value ([2]; final model estimate) was 0.65. For the same compound, the “V1, vancomycin central volume of distribution” value [2, 5] was 13.4 L, the “V2, vancomycin peripheral volume of distribution” value [2, 5] was 36.9 L and the “CL, vancomycin clearance” value [2, 6] was 1.83 L/h. The “V1, vancomycin central volume of distribution” value [2, 6] was 13.1 L, the “V2, vancomycin peripheral volume of distribution” value [2, 6] was 35.7 L and the “percentage of patients still on CVVH or other RRT at ICU discharge” value ([3]; CD group) was 21.2%. For the same compound, the “percentage of patients with AKI at ICU discharge” value ([3]; CD group) was 30.3%, the “percentage of patients with AKI using the maximum RIFLE score during the complete ICU stay” value ([3]; CD group) was 59.4% and the “mean AKI duration” value ([3]; CD group, fixed first dose 1000 mg) was 75.2 h. The “percentage of patients still on CVVH or other RRT at ICU discharge” value ([3]; LD group) was 31.7%, the “percentage of patients with AKI at ICU discharge” value ([3]; LD group) was 34.1% and the “percentage of patients with AKI using the maximum RIFLE score during the complete ICU stay” value ([3]; LD group) was 57.5%. For the same compound, the “mean AKI duration” value ([3]; LD group, 25 mg/kg loading dose) was 37.2 h, the “incidence of new-onset AKI” value ([4]; AUC0–24 < 400 mg·h/L, 4/27, all three groups) was 14.8% and the “incidence of new-onset AKI” value ([4]; AUC0–24 below 600 mg·h/L, 17/69) was 24.6%. For the same compound, the “incidence of new-onset AKI” value ([4]; AUC0–24 ≥400 mg·h/L, 30/77, all three groups) was 39.0%, the “incidence of new-onset AKI” value ([4]; AUC0–24 ≥ 600 mg·h/L, 17/35) was 48.6% and the “number needed to harm (new-onset AKI)” value ([4]; AUC0–24 ≥400 versus < 400 mg·h/L) was 4.1. For the same compound, the “percentage of patients with new-onset AKI” value ([4]; CD group, fixed first dose 1000 mg, 10/35 patients) was 28.6% and the “percentage of patients with new-onset AKI” value ([4]; LD group, 25 mg/kg loading dose, 17/45 patients) was 37.8%.
